{"source": "patent US20190029257A1", "about": "“APPLICATION FOR HERBICIDE-TOLERANT PROTEIN” (BEIJING DABEINONG TECHNOLOGY GROUP CO., LTD., priority 2016, published 2019)", "key": {"[1]": {"test_system": "wild-type soybean plants (CK1)", "assay": "Halosulfuron-methyl tolerance of soybean plants (damage degree)", "assay_type": "in vivo", "description": "The herbicide tolerance effects of Gm cytoplasmic ALT-1-01 soybean plants, Gm chloroplastic ALT-1-01 soybean plants, Gm cytoplasmic ALT-2-01 soybean plants, Gm chloroplastic ALT-2-01 soybean plants, Gm cytoplasmic ALT-3-01 soybean plants, Gm chloroplastic ALT-3-01 soybean plants and wild-type soybean plants on halosulfuron-methyl were detected (at seedling stage), respectively.\nGm cytoplasmic ALT-1-01 soybean plants, Gm chloroplastic ALT-1-01 soybean plants, Gm cytoplasmic ALT-2-01 soybean plants, Gm chloroplastic ALT-2-01 soybean plants, Gm cytoplasmic ALT-3-01 soybean plants, Gm chloroplastic ALT-3-01 soybean plants and wild-type soybean plants were respectively taken and sprayed with halosulfuron-methyl ([…]) and a blank solvent (water). The damage degree caused by the herbicide was measured for each plant according to the leaf curl degree and the growth point damage degree 3 days after spraying (3 DAT), 7 days after spraying (7 DAT), 14 days after spraying (14 DAT) and 21 days after spraying (21 DAT), respectively: considering conditions of leaves being flat as the untreated plants and growth points being intact as having a damage degree of 0%; considering conditions of veins being locally browned, new leaves being malformed and plant growth being slow as having a damage degree of 50%; and considering conditions of veins being purple to whole plant being dead and growth points being browned and dry as having a damage degree of 100%. There were 2 strains in Gm cytoplasmic ALT-1-01 soybean plants in total (S1 and S2), 2 strains in Gm chloroplastic ALT-1-01 soybean plants in total (S3 and S4), 2 strains in Gm cytoplasmic ALT-2-01 soybean plants in total (S5 and S6), 2 strains in Gm chloroplastic ALT-2-01 soybean plants in total (S7 and S8), 2 strains in Gm cytoplasmic ALT-3-01 soybean plants in total (S9 and S10), 2 strains in Gm chloroplastic ALT-3-01 soybean plants in total (S11 and S12), and 1 strain in wild-type soybean plants (CK1) in total; and 10-15 plants were selected from each strain and tested."}, "[2]": {"test_system": "transgenic soybean plants (ALT-1, ALT-2 and ALT-3)", "assay": "Halosulfuron-methyl tolerance of soybean plants", "assay_type": "in vivo", "conditions": "34 g ai/ha; summary of Table 3", "protocol": "Gm cytoplasmic ALT-1-01 soybean plants, Gm chloroplastic ALT-1-01 soybean plants, Gm cytoplasmic ALT-2-01 soybean plants, Gm chloroplastic ALT-2-01 soybean plants, Gm cytoplasmic ALT-3-01 soybean plants, Gm chloroplastic ALT-3-01 soybean plants and wild-type soybean plants were respectively taken and sprayed with halosulfuron-methyl (34 g ai/ha, 1-fold field concentration) and a blank solvent (water). The damage degree caused by the herbicide was measured for each plant according to the leaf curl degree and the growth point damage degree 3 days after spraying (3 DAT), 7 days after spraying (7 DAT), 14 days after spraying (14 DAT) and 21 days after spraying (21 DAT), respectively: considering conditions of leaves being flat as the untreated plants and growth points being intact as having a damage degree of 0%; considering conditions of veins being locally browned, new leaves being malformed and plant growth being slow as having a damage degree of 50%; and considering conditions of veins being purple to whole plant being dead and growth points being browned and dry as having a damage degree of 100%. […]"}}}
{"smiles": "COC(=O)c1c(Cl)nn(C)c1S(=O)(=O)NC(=O)Nc1nc(OC)cc(OC)n1", "note": "[halosulfuron-methyl, 3-chlorine-5-(4,6-dimethoxypyrimidine-2-aminocarbonylaminosulphonyl)-1-methylpyrazole-4-carboxylic acid methyl ester]", "values": [{"measurement": "tolerance of the plants to the herbicide", "setting": "[1]; 34 g ai/ha, summary of Table 3", "result": "not tolerant"}, {"measurement": "Average damage % 3 DAT", "setting": "[1]; strain CK1, 34 g ai/ha (Hal.), 3 days after spraying", "result": 51, "unit": "%"}, {"measurement": "Average damage % 7 DAT", "setting": "[1]; strain CK1, 34 g ai/ha (Hal.), 7 days after spraying", "result": 87, "unit": "%"}, {"measurement": "Average damage % 14 DAT", "setting": "[1]; strain CK1, 34 g ai/ha (Hal.), 14 days after spraying", "result": 100, "unit": "%"}, {"measurement": "Average damage % 21 DAT", "setting": "[1]; strain CK1, 34 g ai/ha (Hal.), 21 days after spraying", "result": 100, "unit": "%"}, {"measurement": "tolerance of the plants to the herbicide", "setting": "[2]", "result": "high level of halosulfuron-methyl herbicide tolerance"}]}
